Data as given in patent US5378696A, “Rapamycin esters” (American Home Products Corporation, priority 1993, dated 1995).
≈ marks a conversion by molar mass, not a printed value. Counter-ions that a name gives are not always drawn. Like-named read-outs stand apart in the source and are kept apart here.

How the values were obtained:
pinch skin graft = experiment: survival time of pinch skin graft; assay type: in vivo, mouse (male DBA/2 donors, male BALB/c recipients); conditions: intraperitoneally, mean graft survival time ± S.D.
Description: (§1) Immunosuppressive activity was evaluated in an in vitro standard pharmacological test procedure to measure lymphocyte proliferation (LAF) and in two in vivo standard pharmacological test procedures. The first in vivo procedure was a popliteal lymph node (PLN) test procedure which measured the effect of compounds of this invention on a mixed lymphocyte reaction and the second in vivo procedure evaluated the survival time of a pinch skin graft.
The second in vivo test procedure is designed to determine the survival time of pinch skin graft from male DBA/2 donors transplanted to male BALB/c recipients. The method is adapted from Billingham R. E. and Medawar P. B., J. Exp. Biol. 28:385-402, (1951). Briefly, a pinch skin graft from the donor is grafted on the dorsum of the recipient as a homograft, and an autograft is used as control in the same region. […] Untreated recipients serve as rejection control. The graft is monitored daily and observations are recorded until the graft becomes dry and forms a blackened scab. This is considered as the rejection day. The mean graft survival time (number of days±S.D.) of the drug treatment group is compared with the control group.

[1] = tested on: lymphocyte proliferation, cells from the thymus of normal BALB/c mice (PHA and IL-1); experiment: comitogen-induced thymocyte proliferation procedure (LAF); assay type: cell-based; conditions: ratio, thymocytes 72 hours with PHA and IL-1, rapamycin 1.0
Description: as §1
Briefly, cells from the thymus of normal BALB/c mice are cultured for 72 hours with PHA and IL-1 and pulsed with tritiated thymidine during the last six hours. […] Cells are harvested and incorporated; radioactivity is determined. inhibition of lymphoproliferation is assessed in percent change in counts per minute from non-drug treated controls. The results are expressed by the following ratio: [formula]

[2] = tested on: Candida albicans ATCC 38246; experiment: antifungal plate test procedure; assay type: cell-based
Description: (§2) The following represents the typical procedure used. Compound to be tested was placed on sterile dried 1/4" plate disks, and allowed to dry. Agar plates were seeded with fungi and allowed to solidify. The impregnated disks were placed on the seeded Agar surface and incubated for the time required for the particular culture. Results are expressed in MIC (μg/ml) to inhibit growth.

Candida albicans 3669 = experiment: antifungal plate test procedure; assay type: cell-based
Description: as §2

[3] = tested on: Candida albicans ATCC 10231; experiment: antifungal plate test procedure; assay type: cell-based
Description: as §2

[4] = tested on: Candida albicans ATCC 38248; experiment: antifungal plate test procedure; assay type: cell-based
Description: as §2

[5] = tested on: Candida albicans ATCC 38247; experiment: antifungal plate test procedure; assay type: cell-based
Description: as §2

[6] = Candida albicans, ATCC38246, ATCC 38246, read-out: MIC
[7] = Candida albicans, 3669, strain 3669, read-out: MIC
[8] = Candida albicans, ATCC38248, ATCC 38248, read-out: MIC
[9] = Candida albicans, ATCC38247, ATCC 38247, read-out: MIC

CO[C@H]1C[C@@H]2CC[C@@H](C)[C@@](O)(O2)C(=O)C(=O)N2CCCC[C@H]2C(=O)O[C@H]([C@H](C)C[C@@H]2CC[C@@H](OC(=O)CCCC(=O)O)[C@H](OC)C2)CC(=O)[C@H](C)/C=C(\C)[C@@H](OC(=O)CCCC(=O)O)[C@@H](OC)C(=O)[C@H](C)C[C@H](C)/C=C/C=C/C=C/1C [Example 6, Rapamycin-31,42-bishemiglutarate bistromethamine salt]
Skin Graft (days + SD), mean graft survival time (pinch skin graft): 8.0 ± 0.9 days
LAF (ratio) [1]: 0.01
MIC ([2]; ATCC 38246): > 0.4 µg/mL
MIC (Candida albicans 3669; strain 3669): > 0.4 µg/mL
MIC ([3]; ATCC 10231): 0.4 µg/mL
MIC ([4]; ATCC 38248): > 0.4 µg/mL
MIC ([5]; ATCC 38247): 0.4 µg/mL

CO[C@H]1C[C@@H]2CC[C@@H](C)[C@@](O)(O2)C(=O)C(=O)N2CCCC[C@H]2C(=O)O[C@H]([C@H](C)C[C@@H]2CC[C@@H](OC(=O)CCCC(=O)O)[C@H](OC)C2)CC(=O)[C@H](C)/C=C(\C)[C@@H](OC(=O)CCCC(=O)O)[C@@H](OC)C(=O)[C@H](C)C[C@H](C)/C=C/C=C/C=C/1C [Example 5, Rapamycin-31,42-hemiglutarate bissodium salt]
Skin Graft (days + SD), mean graft survival time (pinch skin graft; bissodium salt): 8.0 ± 1.7 days
LAF (ratio) ([1]; bissodium salt): 0.02
MIC ([2]; ATCC 38246, bissodium salt): > 0.4 µg/mL
MIC (Candida albicans 3669; strain 3669, bissodium salt): > 0.4 µg/mL
MIC ([3]; ATCC 10231, bissodium salt): 0.4 µg/mL
MIC ([4]; ATCC 38248, bissodium salt): > 0.4 µg/mL
MIC ([5]; ATCC 38247, bissodium salt): > 0.4 µg/mL

CO[C@H]1C[C@@H]2CC[C@@H](C)[C@@](O)(O2)C(=O)C(=O)N2CCCC[C@H]2C(=O)O[C@H]([C@H](C)C[C@@H]2CC[C@@H](OC(=O)COCC(=O)O)[C@H](OC)C2)CC(=O)[C@H](C)/C=C(\C)[C@@H](OC(=O)COCC(=O)O)[C@@H](OC)C(=O)[C@H](C)C[C@H](C)/C=C/C=C/C=C/1C [Example 10, Rapamycin-31,42-bishemi-3'-oxoglutarate bistromethamine salt]
Skin Graft (days + SD), mean graft survival time (pinch skin graft): 10.8 ± 0.8 days
LAF (ratio) [1]: 0.18
MIC ([2]; ATCC 38246): > 0.4 µg/mL
MIC (Candida albicans 3669; strain 3669): > 0.4 µg/mL
MIC ([3]; ATCC 10231): 0.1 µg/mL
MIC ([4]; ATCC 38248): 0.4 µg/mL
MIC ([5]; ATCC 38247): 0.2 µg/mL

CO[C@H]1C[C@@H]2CC[C@@H](C)[C@@](O)(O2)C(=O)C(=O)N2CCCC[C@H]2C(=O)O[C@H]([C@H](C)C[C@@H]2CC[C@@H](OC(=O)CCC(=O)O)[C@H](OC)C2)CC(=O)[C@H](C)/C=C(\C)[C@@H](OC(=O)CCC(=O)O)[C@@H](OC)C(=O)[C@H](C)C[C@H](C)/C=C/C=C/C=C/1C [Example 11, Rapamycin-31,42-bishemisuccinate]
Skin Graft (days + SD), mean graft survival time (pinch skin graft): 7.8 ± 1.7 days
MIC [2, 6]: > 0.4 µg/mL
MIC (Candida albicans 3669; [7]): > 0.4 µg/mL
MIC ([3]; Candida albicans, ATCC10231, ATCC 10231, read-out: MIC): > 0.4 µg/mL
MIC [4, 8]: > 0.4 µg/mL
MIC [5, 9]: > 0.4 µg/mL

C=CCOC(=O)CCCC(=O)O[C@@H]1/C(C)=C/[C@@H](C)C(=O)C[C@@H]([C@H](C)C[C@@H]2CC[C@@H](O)[C@H](OC)C2)OC(=O)[C@@H]2CCCCN2C(=O)C(=O)[C@]2(O)O[C@@H](CC[C@H]2C)C[C@H](OC)/C(C)=C/C=C/C=C/[C@@H](C)C[C@@H](C)C(=O)[C@@H]1OC [Example 15, Rapamycin-31-allylglutarate]
Skin Graft (days + SD), mean graft survival time (pinch skin graft): 9.8 ± 0.8 days
LAF (ratio) [1]: 0.40

C=CCOC(=O)CCCC(=O)O[C@@H]1CC[C@@H](C[C@@H](C)[C@@H]2CC(=O)[C@H](C)/C=C(\C)[C@@H](O)[C@@H](OC)C(=O)[C@H](C)C[C@H](C)/C=C/C=C/C=C(\C)[C@@H](OC)C[C@@H]3CC[C@@H](C)[C@@](O)(O3)C(=O)C(=O)N3CCCC[C@H]3C(=O)O2)C[C@H]1OC [Example 14, Rapamycin-42-allylglutarate]
Skin Graft (days + SD), mean graft survival time (pinch skin graft): 11.0 ± 0.0 days
LAF (ratio) [1]: 3.42

CO[C@H]1C[C@@H]2CC[C@@H](C)[C@@](O)(O2)C(=O)C(=O)N2CCCC[C@H]2C(=O)O[C@H]([C@H](C)C[C@@H]2CC[C@@H](OC(=O)COCC(=O)O)[C@H](OC)C2)CC(=O)[C@H](C)/C=C(\C)[C@@H](OC(=O)COCC(=O)O)[C@@H](OC)C(=O)[C@H](C)C[C@H](C)/C=C/C=C/C=C/1C [Example 8]
LAF (ratio) [1]: positive ratio
MIC [2, 6]: > 0.4 µg/mL
MIC (Candida albicans 3669; [7]): > 0.4 µg/mL
MIC ([3]; ATCC 10231): 0.4 µg/mL (≈ 0.349 µM)
MIC [4, 8]: > 0.4 µg/mL
MIC [5, 9]: 0.4 µg/mL (≈ 0.349 µM)
